# According to US20220347175A1, “PYRIDAZINONE DERIVATIVE” (Sumitomo Dainippon Pharma Co., Ltd., priority 2018, published 2022):
# Key:
# human Nav1.1 = biological target: T1, human Nav1.1 (Homo sapiens, UniProt P35498); assay: Amplification of Nav1.1-derived voltage-dependent sodium current (Nav1.1 current), cell line stably expressing human Nav1.1, automated patch clamp; format: cell-based; conditions: for activation at 10 µM / activation at 1 µM: read-out: Nav1.1 current amplification rate (%)
# T1 construct: host or cells: HEK293
# How it was run: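 Amplification rate (%) is 100 × post-compound/pre-compound Nav1.1 peak current or AUC, minus 100. Ramp-evoked sodium currents were recorded by automated patch clamp in a human Nav1.1 HEK293 stable line, restricted to cells exceeding 500 pA, with compounds added in extracellular solution containing 1% DMSO.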
# human Nav1.5 = biological target: T2, human Nav1.5 (Homo sapiens, UniProt Q14524); assay: Amplification of Nav1.5-derived voltage-dependent sodium current (Nav1.5 current), cell line stably expressing human Nav1.5, automated patch clamp; format: cell-based; conditions: for activation at 10 µM / activation at 1 µM: read-out: Nav1.5 current amplification rate (%)
# T2 construct: expressed in transfected cells; host or cells: CHO-K1 (T-REx System, ThermoFisher Scientific)
# T2 sequence (Q14524 1-2015 isoform Q14524-2): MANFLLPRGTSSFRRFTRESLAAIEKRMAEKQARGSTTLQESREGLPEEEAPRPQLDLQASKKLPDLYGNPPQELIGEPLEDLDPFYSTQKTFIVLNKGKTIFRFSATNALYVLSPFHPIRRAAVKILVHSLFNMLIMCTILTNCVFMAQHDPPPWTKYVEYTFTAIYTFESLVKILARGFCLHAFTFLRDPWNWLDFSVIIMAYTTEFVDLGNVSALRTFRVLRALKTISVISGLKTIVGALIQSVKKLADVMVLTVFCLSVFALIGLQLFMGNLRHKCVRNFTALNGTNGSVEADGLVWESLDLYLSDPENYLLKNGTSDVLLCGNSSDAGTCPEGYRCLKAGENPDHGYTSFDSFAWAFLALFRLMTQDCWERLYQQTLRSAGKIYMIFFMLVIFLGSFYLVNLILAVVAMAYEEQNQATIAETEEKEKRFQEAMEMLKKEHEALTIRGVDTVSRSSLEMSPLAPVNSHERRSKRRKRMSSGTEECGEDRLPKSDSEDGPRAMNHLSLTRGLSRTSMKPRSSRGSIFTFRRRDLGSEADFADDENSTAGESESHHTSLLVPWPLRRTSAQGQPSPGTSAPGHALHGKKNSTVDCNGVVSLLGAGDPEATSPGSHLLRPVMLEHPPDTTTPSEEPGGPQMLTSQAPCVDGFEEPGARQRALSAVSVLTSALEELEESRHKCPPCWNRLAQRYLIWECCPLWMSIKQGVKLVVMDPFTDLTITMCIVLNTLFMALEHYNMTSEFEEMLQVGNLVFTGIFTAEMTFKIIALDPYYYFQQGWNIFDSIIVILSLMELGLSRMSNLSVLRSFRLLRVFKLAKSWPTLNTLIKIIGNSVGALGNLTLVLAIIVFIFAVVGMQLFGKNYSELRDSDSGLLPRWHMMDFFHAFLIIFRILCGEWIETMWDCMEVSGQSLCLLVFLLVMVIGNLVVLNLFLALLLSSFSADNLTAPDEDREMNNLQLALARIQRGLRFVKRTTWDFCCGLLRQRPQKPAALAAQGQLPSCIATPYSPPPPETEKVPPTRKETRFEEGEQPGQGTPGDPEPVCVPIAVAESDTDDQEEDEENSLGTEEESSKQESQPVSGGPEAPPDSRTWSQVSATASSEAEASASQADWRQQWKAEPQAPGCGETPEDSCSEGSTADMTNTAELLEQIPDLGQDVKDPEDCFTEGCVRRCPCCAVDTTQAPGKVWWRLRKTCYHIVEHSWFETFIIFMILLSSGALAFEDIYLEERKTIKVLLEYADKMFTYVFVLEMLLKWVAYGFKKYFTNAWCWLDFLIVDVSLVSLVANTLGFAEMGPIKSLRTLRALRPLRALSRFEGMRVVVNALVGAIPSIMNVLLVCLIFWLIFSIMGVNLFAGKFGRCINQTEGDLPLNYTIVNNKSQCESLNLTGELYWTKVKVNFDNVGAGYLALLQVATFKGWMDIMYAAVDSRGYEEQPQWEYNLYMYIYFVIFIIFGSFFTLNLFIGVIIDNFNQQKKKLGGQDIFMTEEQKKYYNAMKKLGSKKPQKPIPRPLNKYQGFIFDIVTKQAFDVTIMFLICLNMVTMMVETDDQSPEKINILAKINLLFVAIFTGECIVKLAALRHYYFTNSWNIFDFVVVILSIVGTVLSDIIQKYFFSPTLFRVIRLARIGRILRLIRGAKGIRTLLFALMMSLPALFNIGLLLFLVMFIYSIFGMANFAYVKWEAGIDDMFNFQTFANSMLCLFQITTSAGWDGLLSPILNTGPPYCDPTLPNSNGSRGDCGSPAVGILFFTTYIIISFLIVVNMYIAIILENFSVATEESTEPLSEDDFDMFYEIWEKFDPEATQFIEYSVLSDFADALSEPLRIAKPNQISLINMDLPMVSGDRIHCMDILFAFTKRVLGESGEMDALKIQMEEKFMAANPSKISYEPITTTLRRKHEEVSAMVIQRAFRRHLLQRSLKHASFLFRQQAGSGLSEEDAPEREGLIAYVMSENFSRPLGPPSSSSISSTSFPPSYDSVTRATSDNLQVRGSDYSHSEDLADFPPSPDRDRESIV
# [1] = compound 1 μmol/L, HEK293 stably expressing human Nav1.1
# [2] = compound 1 μmol/L, CHO-K1 stably expressing human Nav1.5
# [3] = 10 μmol/L compound, change of the area under the curve of Nav1.1 current (Test Result 1)
# [4] = 10 μmol/L compound, change of the area under the curve of Nav1.5 current (Test Result 1)
# [5] = compound 3 μmol/L, HEK293 stably expressing human Nav1.1
# [6] = compound 3 μmol/L, CHO-K1 stably expressing human Nav1.5
compound,measurement,setting,value
CC1CC=C(c2ccc(=O)n(CC(=O)Nc3ccnc(C#N)c3)n2)CC1 (racemic) [Example 362],Nav1.1 current amplification rate (%),human Nav1.1; [1],133%
same,Nav1.5 current amplification rate (%),human Nav1.5; [2],24%
Cc1noc2ccc(NC(=O)Cn3nc(N4CCC(C)CC4)ccc3=O)cc12 [Example 70],Nav1.1 current amplification rate (%),human Nav1.1; [3],68%
same,Nav1.5 current amplification rate (%),human Nav1.5; [4],0%
Cc1nc2cc(NC(=O)Cn3nc(C4=CCC(C)CC4)ccc3=O)cnc2s1 (racemic) [Example 326],Nav1.1 current amplification rate (%),human Nav1.1; [5],132%
same,Nav1.5 current amplification rate (%),human Nav1.5; [6],34%
CC1CC=C(c2ccc(=O)n(CC(=O)N3CC4(C3)CN(c3cccnc3)C4)n2)CC1 (centres unmarked) [Example 424],Nav1.1 current amplification rate (%),human Nav1.1; [3],40%
same,Nav1.5 current amplification rate (%),human Nav1.5; [4],2%
CC1CC=C(c2ccc(=O)n(CC(=O)N3CCOc4c(-c5cn[nH]c5)cccc43)n2)CC1 (racemic) [Example 290],Nav1.1 current amplification rate (%),human Nav1.1; [5],94%
same,Nav1.5 current amplification rate (%),human Nav1.5; [6],4.5%
CC1CC=C(c2ccc(=O)n(CC(=O)N3CCc4c(CN5CCCC5)cccc43)n2)CC1 (racemic) [Example 271],Nav1.1 current amplification rate (%),human Nav1.1; [5],48%
same,Nav1.5 current amplification rate (%),human Nav1.5; [6],70%
CC1CCN(c2ccc(=O)n(CC(=O)Nc3ccc(C(=O)N4CCCC4)nc3)n2)CC1 [Example 217],activation at 10 µM,human Nav1.1; [3],25%
same,activation at 10 µM,human Nav1.5; [4],1%
"C[C@@H]1CC=C(c2ccc(=O)n(CC(=O)Nc3ccn4ncnc4c3)n2)CC1 [Example 537, 2-{3-[(4S)-4-methylcyclohex-1-en-1-yl]-6-oxopyridazin-1(6H)-yl}-N-([1,2,4]triazolo[1,5-a]pyridin-7-yl)acetamide]",activation at 1 µM,human Nav1.1; [1],99%
same,activation at 1 µM,human Nav1.5; [2],29%
CC1CC=C(c2ccc(=O)n(CC(=O)Nc3ccc4oc(CN5CCC5)nc4c3)n2)CC1 (racemic) [Example 333],Nav1.1 current amplification rate (%),human Nav1.1; [5],25%
same,Nav1.5 current amplification rate (%),human Nav1.5; [6],13%
CC1(C)CC=C(c2ccc(=O)n(CC(=O)Nc3ccn4nccc4c3)n2)CC1 [Example 427],Nav1.1 current amplification rate (%),human Nav1.1; [3],172%
same,Nav1.5 current amplification rate (%),human Nav1.5; [4],63%
COc1ccc2c(c1)CCN2C(=O)Cn1nc(C2=CCC(C)(C)CC2)ccc1=O [Example 430],Nav1.1 current amplification rate (%),human Nav1.1; [3],28%
same,Nav1.5 current amplification rate (%),human Nav1.5; [4],22%
CC1CC=C(c2ccc(=O)n(CC(=O)N3CCN(c4cnn(C)c4)CC3)n2)CC1 (centres unmarked) [Example 415],Nav1.1 current amplification rate (%),human Nav1.1; [3],93%
same,Nav1.5 current amplification rate (%),human Nav1.5; [4],2%
O=C(Cn1nc(C2=CCCCC2)ccc1=O)N1CCc2c(Cn3ccnc3)cccc21 [Example 515],activation at 1 µM,human Nav1.1; [1],255%
same,activation at 1 µM,human Nav1.5; [2],287%
COc1cc(=O)n(CC(=O)N2CCN(c3cncc(F)c3)CC2)nc1C1=CCC(C)(C)CC1 [Example 490],Nav1.1 current amplification rate (%),human Nav1.1; [3],469%
same,Nav1.5 current amplification rate (%),human Nav1.5; [4],25%
CC1CCN(c2ccc(=O)n(CC(=O)Nc3cccc(-c4cnco4)c3)n2)CC1 [Example 77],Nav1.1 current amplification rate (%),human Nav1.1; [3],93%
same,Nav1.5 current amplification rate (%),human Nav1.5; [4],28%
CC1CC=C(c2ccc(=O)n(CC(=O)N3CCc4c(-c5ccnnc5)cccc43)n2)CC1 (racemic) [Example 253],Nav1.1 current amplification rate (%),human Nav1.1; [5],455%
same,Nav1.5 current amplification rate (%),human Nav1.5; [6],85%
CC1CCN(c2ccc(=O)n(CC(=O)Nc3ccnc(C(F)(F)F)c3)n2)CC1 [Example 52],Nav1.1 current amplification rate (%),human Nav1.1; [3],248%
same,Nav1.5 current amplification rate (%),human Nav1.5; [4],19%
CC1CCN(c2ccc(=O)n(CC(=O)Nc3ccc4c(c3)NC(=O)CC4)n2)CC1 [Example 181],activation at 10 µM,human Nav1.1; [3],118%
same,activation at 10 µM,human Nav1.5; [4],4%
CC1CCN(c2ccc(=O)n(CC(=O)N3CCc4cc(C(F)(F)F)ccc43)n2)CC1 [Example 189],activation at 10 µM,human Nav1.1; [3],3%
same,activation at 10 µM,human Nav1.5; [4],-2%
O=C(Cn1nc(N2CCC3(CCC3)CC2)ccc1=O)Nc1ccn2cnnc2c1 [Example 176],activation at 10 µM,human Nav1.1; [3],66%
same,activation at 10 µM,human Nav1.5; [4],2%
COc1cc(C2=CCC(C)C2)nn(CC(=O)N2CCN(c3cncc(F)c3)CC2)c1=O (centres unmarked) [Example 485],Nav1.1 current amplification rate (%),human Nav1.1; [3],264%
same,Nav1.5 current amplification rate (%),human Nav1.5; [4],3%
CC1CC=C(c2ccc(=O)n(CC(=O)N3CCc4cc(N5CCOCC5)ccc43)n2)CC1 (racemic) [Example 246],Nav1.1 current amplification rate (%),human Nav1.1; [3],136%
same,Nav1.5 current amplification rate (%),human Nav1.5; [4],145%
Cc1ncc(-c2cccc3c2CCN3C(=O)Cn2nc(C3=CCC(C)CC3)ccc2=O)cn1 (racemic) [Example 264],Nav1.1 current amplification rate (%),human Nav1.1; [5],597%
same,Nav1.5 current amplification rate (%),human Nav1.5; [6],65%
Cc1cn2ccc(NC(=O)Cn3nc(N4CCC(C)CC4)ccc3=O)cc2n1 [Example 174],activation at 10 µM,human Nav1.1; [3],75%
same,activation at 10 µM,human Nav1.5; [4],4%
Cc1nc2cc(NC(=O)Cn3nc(C4=CCC(C)CC4)ccc3=O)ccn2c1C (racemic) [Example 329],Nav1.1 current amplification rate (%),human Nav1.1; [5],100%
same,Nav1.5 current amplification rate (%),human Nav1.5; [6],50%
